Assay results from patent US20090312237A1, “REGULATING FAT AND CARBOHYDRATE OXIDATION IN MUSCLE TISSUE COMPRISING CONTROLLING GARNITINE CONTENT IN MUSCLE” (THE UNIVERSITY OF NOTTINGHAM, priority 2006, published 2009).

Assays:
Format in all cases: in vivo, human
[1] = Euglycaemic hyperinsulinaemic clamp with intravenous L-carnitine infusion: serum insulin and whole body glucose disposal; conditions: for whole body glucose disposal: mean±SEM
Experimental: (§1) Seven healthy, non-vegetarian young men (age 22.4±1.5 yr, body mass 84.3±5.0 kg, body mass index […]) participated in the study. Each subject reported to the laboratory at 8 am on two occasions, separated by a 2-week “wash out” period, and voided their bladder. All subjects had abstained from carnitine containing foods, alcohol, and strenuous exercise for the previous 24 hours. On arrival, subjects were asked to rest in a supine position on a bed while a cannula was inserted retrogradely in to a superficial vein on the dorsal surface of the non-dominant hand. This hand was kept in a hand-warming unit (air temperature 50-55° C.) to arterialize the venous drainage of the hand, and a saline drip was attached to keep the cannula patent. A second cannula was placed in an antecubital vein in the non-dominant forearm for the infusion of insulin and glucose, and a third cannula was inserted into an antecubital vein in the opposite arm for infusion of L-carnitine.
(§2) On each experimental visit, a 6 hour (h) euglycaemic hyperinsulinaemic insulin (human Actrapid, Novo Nordisk, Denmark) clamp was performed, whilst maintaining a fasting blood glucose concentration of 4.47±0.01 mmol·l^−1. The insulin clamp began at t=0 at a rate of 105 mlU·m^−2·min^−1 with the aim of achieving steady state hyperinsulinaemic (˜150 mlU·l^−1) serum insulin concentration throughout each visit. […]
(§3) During each experimental visit, 1 ml of arterialized venous (a-v) blood was obtained every 5 min for monitoring blood glucose concentration (YSI 2300 STATplus, Yellow Springs Instruments, Ohio). […] These samples were then stored at −80° C. and analyzed at a later date for free fatty acid (FFA) concentration, using an enzymatic-colorimetric assay kit (NEFA C kit, WAKO Chemicals, Germany), and total carnitine (TC) concentration, using the radioenzymatic assay described previously by Cederblad et al (1982). […] Insulin was measured in these samples at a later date with a radioammunoassy kit (Coat-a-Count Insulin, DPC, Ca, USA). […]

[2] = Skeletal muscle carnitine content (vastus lateralis biopsy, radioenzymatic)
Experimental: as §1
(§4) On each experimental visit, a 6 hour (h) euglycaemic hyperinsulinaemic insulin (human Actrapid, Novo Nordisk, Denmark) clamp was performed, whilst maintaining a fasting blood glucose concentration of 4.47±0.01 mmol·l^−1. The insulin clamp began at t=0 at a rate of 105 mlU·m^−2·min^−1 with the aim of achieving steady state hyperinsulinaemic (˜150 mlU·l^−1) serum insulin concentration throughout each visit. Following a 1 hour equilibration period, a 5 hour intravenous infusion of 60 mM L-carnitine (CARN) (Lonza Ltd, Basel, Switzerland) or the equivalent volume of saline (CON) began, in randomised manner, in conjunction with the insulin clamp. At the onset of L-carnitine infusion a bolus dose of 15 mg·kg^−1 was administered over 10 minutes (min) in order to rapidly reach a supraphysiological plasma concentration of ˜500 μmol·l^−1. This was followed by a constant infusion at 10 mg·kg^−1·h^−1 for the next […] to maintain hypercarnitinaemia. At t=6 h, the insulin and L-carnitine infusions were stopped, whereas the glucose infusion was continued for approximately 80 min in order to stabilise blood glucose concentration. During this time, on each visit, subjects were fed the same standardised, carnitine-free meal.
(§5) Muscle biopsy samples were obtained from the vastus lateralis muscle immediately before and after each insulin clamp, and the following morning, using the percutaneous needle biopsy technique, and were snap frozen in liquid nitrogen less than 5 seconds after removal from the limb. One portion of the sample was subsequently freeze-dried and stored at −80° C., and the remainder was stored “wet” in liquid nitrogen. After removal of visible blood and connective tissue, the freeze-dried muscle samples were powdered, and free carnitine (FC), acetylcarnitine (AC), long-chain acylcarnitine (LCAC), and long-chain acyl-CoA (LCACoA) contents were determined radioenzymatically using a modified version of the radioenzymatic method of Cederblad et al (1990). Values were subsequently summed in order to calculate muscle TC. To reduce the variance in non-muscle constituents, muscle carnitine content was adjusted for the highest total creatine content from each pair of samples. Total creatine was calculated as the sum of free creatine and phosphocreatine content determined spectrophotometrically using the method of Harris et al (1974). Muscle glycogen, glucose-6-phosphate (G-6-P), and lactate content was also determined using a modified version of the spectrophotometric method of Harris et al (1974).
(§6) A two-way ANOVA (time and treatment effects; GraphPad Prism 4.02, GraphPad Software Inc, CA) was performed to locate differences in serum insulin, plasma carnitine, plasma FFA, and blood glucose concentrations as well as muscle PDC activity and carnitine, long-chain acyl-CoA, glycogen, lactate, and glucose-6-phosphate content. When a significant main effect was detected, data were further analysed with Student's paired t tests using the Bonferroni correction. […]

[3] = Plasma free fatty acid (FFA) concentration during L-carnitine infusion with insulin clamp; conditions: not significantly different from CON
Experimental: Seven healthy, non-vegetarian young men (age 22.4±1.5 yr, body mass 84.3±5.0 kg, body mass index […]) participated in the study. Each subject reported to the laboratory at 8 am on two occasions, separated by a 2-week “wash out” period, and voided their bladder. All subjects had abstained from carnitine containing foods, alcohol, and strenuous exercise for the previous 24 hours. On arrival, subjects were asked to rest in a supine position on a bed while a cannula was inserted retrogradely in to a superficial vein on the dorsal surface of the non-dominant hand. This hand was kept in a hand-warming unit (air temperature 50-55° C.) to arterialize the venous drainage of the hand, and a saline drip was attached to keep the cannula patent. […]
as §3

[4] = tested on: pyruvate dehydrogenase complex (PDC); assay: Muscle pyruvate dehydrogenase complex (PDC) activity in biopsy samples; conditions: for post infusion PDC activity less than CON: CARN vs CON, P<0.05; for muscle PDC activity: post infusion/clamp
Experimental: as §1, §2
Muscle biopsy samples were obtained from the vastus lateralis muscle immediately before and after each insulin clamp, and the following morning, using the percutaneous needle biopsy technique, and were snap frozen in liquid nitrogen less than 5 seconds after removal from the limb. […] After removal of visible blood and connective tissue, the freeze-dried muscle samples were powdered, and free carnitine (FC), acetylcarnitine (AC), long-chain acylcarnitine (LCAC), and long-chain acyl-CoA (LCACoA) contents were determined radioenzymatically using a modified version of the radioenzymatic method of Cederblad et al (1990). […] Total creatine was calculated as the sum of free creatine and phosphocreatine content determined spectrophotometrically using the method of Harris et al (1974). Muscle glycogen, glucose-6-phosphate (G-6-P), and lactate content was also determined using a modified version of the spectrophotometric method of Harris et al (1974).
The remainder of the frozen muscle was used to determine PDC activity as previously described (Constantin-Teodosiu et al, 1991). Briefly, the activity of PDC in its dephosphorylated active form (PDCa) was assayed in a buffer containing NaF and dichloroacetate (DCA) and was expressed as rate of acetyl-CoA formation (mmol·min^1·(kg wet muscle)^−1 or nmol·min^1·(mg protein)^−1) at 37° C. Protein concentrations were determined using the method of Peterson (1977). […]

[5] = Muscle metabolites (glycogen, lactate, glucose-6-phosphate, long-chain acyl-CoA) in biopsy samples; conditions: for muscle LCACoA content greater than CON: following morning (24 h), CARN vs CON, P<0.05
Experimental: as §1, §4, §5, §6

C[N+](C)(C)C[C@H](O)CC(=O)[O-] [L-carnitine]
whole body glucose disposal ([1]; 80 min recovery period following the clamp): 37.2 ± 3.5 g
whole body glucose disposal ([1]; over the 6 h clamp, n=7): 316.8 ± 15.0 g
total amount of glucose infused ([1]; whole visit (CON approximately 330 g)): ~350 g
skeletal muscle total carnitine (TC) content ([2]; 24 h (following morning), not significantly different from pre infusion value): 25.1±2.2 mmol·(kg dm)^−1
muscle free carnitine (FC) overnight ([2]; 24 h after CARN infusion visit): retuning to basal
skeletal muscle total carnitine (TC) content ([2]; after 5 h L-carnitine infusion during hyperinsulinaemia, pre infusion 22.5±2.0, P<0.01): 26.6±1.6 mmol·(kg dm)^−1
change in muscle acetyl carnitine (AC) ([2]; during the CARN infusion visit): no change
increase in muscle free carnitine (FC) ([2]; during the CARN infusion visit, P<0.05): 17%
skeletal muscle long chain acyl carnitine ([2]; following infusion visit): unchanged
increase in skeletal muscle TC ([2]; post vs pre 5 h L-carnitine infusion during hyperinsulinaemia): 15%
plasma FFA concentration ([3]; by 24 h): 0.19 ± 0.02 mmol/L
plasma FFA concentration ([3]; maintained during the insulin clamp, basal 0.30±0.04): 0.046 ± 0.01 mmol/L
post infusion PDC activity less than CON [4]: 30%
post infusion PDC activity less than CON ([4]; listed as CARN): 31%
muscle PDC activity ([4]; pre 0.43±0.07, P<0.01): 0.74±0.06 mmol·min^−1·(kg wm)^−1
muscle PDC activity ([4]; pre 4.2±1.6): 4.1±0.9 nmol·min^−1·(mg protein)^−1
muscle glycogen content ([5]; 24 h after commencement of the insulin infusion, P<0.001 vs pre, P<0.01 vs CON): 736±24 mmol·(kg dm)^−1
difference in whole body muscle glycogen content between CON and CARN visits ([5]; assuming skeletal muscle contributes to 40% of total body mass): 250 g
skeletal muscle glucose-6-phosphate content ([5]; during each visit): No significant differences
increase in muscle glycogen content compared with CON ([5]; following an overnight fast (24 h)): 30%
muscle LCACoA content ([5]; following morning (24 h) in the CARN visit): returned to basal
muscle LCACoA content greater than CON [5]: 40%
muscle LCACoA content greater than CON ([5]; listed as CARN): 39%
skeletal muscle lactate content ([5]; following the CARN infusion visit (CON increased 56%)): unchanged
decrease in muscle lactate content ([5]; post infusion, 6 hour clamp): 40%
muscle glycogen content ([5]; post infusion, resting 487±23, P<0.01): 651±37 mmol·(kg dm)^−1
